Reference: ChEMBL document CHEMBL1955740, “Structure-based virtual screening approach to the discovery of p38 MAP kinase inhibitors” (Bioorg Med Chem Lett, 2012)

How the values were obtained:
[1] = biological target: T1, Mitogen-activated protein kinase 14 (Homo sapiens, UniProt Q16539); assay: Inhibition of MAPK p38alpha assessed as activity remaining at 50 uM relative to control
[2] = biological target: T1, Mitogen-activated protein kinase 14; assay: Inhibition of MAPK p38alpha

T1 sequence (Q16539 whole entry): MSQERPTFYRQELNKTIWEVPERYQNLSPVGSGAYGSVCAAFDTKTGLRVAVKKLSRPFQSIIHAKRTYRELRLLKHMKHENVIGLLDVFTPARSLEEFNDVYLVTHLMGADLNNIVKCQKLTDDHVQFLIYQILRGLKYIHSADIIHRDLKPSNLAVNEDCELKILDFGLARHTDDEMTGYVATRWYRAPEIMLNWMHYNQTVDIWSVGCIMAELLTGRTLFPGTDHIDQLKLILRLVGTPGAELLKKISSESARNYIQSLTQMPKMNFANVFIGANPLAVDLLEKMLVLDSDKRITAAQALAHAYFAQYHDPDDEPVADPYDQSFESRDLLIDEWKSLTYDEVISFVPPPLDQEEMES

SMILES: Cc1cccc(-c2nc(Nc3ccc(C(=O)O)cc3)c3ccccc3n2)c1
- Activity [1]: 34%
- IC50 [2]: 20.4 µM

SMILES: Nc1nc(Nc2ccccc2)sc1C(=O)c1ccccc1
- Activity [1]: 8.1%
- IC50 [2]: 0.72 µM

SMILES: NC(=O)c1ccc(Nc2nnc(-c3ccc(O)cc3)c3ccccc23)cc1
- Activity [1]: 41%
- IC50 [2]: > 30 µM

SMILES: O=C1c2ccccc2C(=O)N1CCc1nc2c3c(-c4ccco4)c(-c4ccco4)oc3ncn2n1
- Activity [1]: 39%
- IC50 [2]: > 30 µM

SMILES: CCn1cc(/C=C2/Oc3c(ccc(O)c3CN3CCOCC3)C2=O)c2ccccc21
- Activity [1]: 37%
- IC50 [2]: > 30 µM

SMILES: Cn1cc(/C=C2/C(=O)NC(=O)N(CCc3ccccc3)C2=O)c2ccccc21
- Activity [1]: 32%
- IC50 [2]: 17.1 µM
